Measurements taken from patent US20110053945A1, “SALTS OF 6-(5-CHLORO-2-PYRIDYL)-5-[(4-METHYL-1-PIPERAZINYL)CARBONYLOXY]-7-OXO-6,7-DIHY-DRO-5H-PYRROLO[3,4-B]PYRAZINE” (SEPRACOR INC., priority 2007, published 2011).
Structures can show the parent of a compound that is named as a salt.

Columns and labels:
[1] = Aqueous solubility, equilibrated 24 hour suspension of the salt in water, HPLC; type: physicochemical; settings: for pH: pH measured at saturation in water; for Solubility: water, 24 hour at ambient
Experimental: The aliquot was diluted and analyzed by HPLC. The data was compared to a standard curve generated from a set of solutions of known concentrations. The standard curve and the samples were analyzed using a HPLC using the following conditions: • Column: Symmetry C-18, 5 um, 15 cm×3.9 mm (Waters) • Mobile Phase: 0.05 M KH2PO4-0.01 M Hexanesulfonic Acid/THF (1000:125) (Apparent pH 5.0) • Column Temp: 20-30° C. • Flow Rate: 1.0 mL/min • Wavelength: 305 nm • Run Time: 15 min (zopiclone retention time is 9.5-10 min)

[2] = Intrinsic dissolution, USP 28 method <1087>; type: physicochemical; settings: isotonic 50 mM acetate buffer pH 4.5, 37° C., 50 rpm; for Intrinsic dissolution Average: average of two runs
Experimental: Intrinsic dissolution was determined using USP 28 method <1087> (United States Pharmacopeia, The National Formulary, USP 28, 28th edition, Rockville, […]., 2005). Preparation of each test sample was performed as per USP 28 method <1087> by weighing and transferring the material to the die cavity and compressing for 1 minute at the minimum compression pressure necessary to form a nondisintegrating compacted pellet. The dissolution media used was isotonic 50 mM acetate buffer (pH 4.5) at 37° C. and speed was set at 50 rpm. Each run was halted at 5 min, irrespective of the percent dissolved. Each salt was run in duplicate.

CN1CCN(C(=O)O[C@H]2c3nccnc3C(=O)N2c2ccc(Cl)cn2)CC1 [D-Malate, (S)-Zopiclone D-Malate]
pH [1]: 4.0
Solubility [1]: 36 mgA/mL
Intrinsic dissolution Run 1 [2]: 20.0 mgA/cm^2/min
Intrinsic dissolution Run 2 [2]: 19.8 mgA/cm^2/min
Intrinsic dissolution Average [2]: 19.9 mgA/cm^2/min

CN1CCN(C(=O)OC2c3nccnc3C(=O)N2c2ccc(Cl)cn2)CC1 (stereo in doubt) [(R)-Mandelate, (S)-Zopiclone (R)-Mandelate]
pH [1]: 5.1
Solubility [1]: 25 mgA/mL
Intrinsic dissolution Run 1 [2]: 8.2 mgA/cm^2/min
Intrinsic dissolution Run 2 [2]: 8.9 mgA/cm^2/min
Intrinsic dissolution Average [2]: 8.5 mgA/cm^2/min

CN1CCN(C(=O)O[C@H]2c3nccnc3C(=O)N2c2ccc(Cl)cn2)CC1 [Succinate, (S)-Zopiclone Succinate]
Solubility [1]: 100 mgA/mL

CN1CCN(C(=O)O[C@H]2c3nccnc3C(=O)N2c2ccc(Cl)cn2)CC1 [Mesylate, (S)-Zopiclone Mesylate]
pH [1]: 4.9
Solubility [1]: >86 mgA/mL

CN1CCN(C(=O)O[C@H]2c3nccnc3C(=O)N2c2ccc(Cl)cn2)CC1 [Free base, (S)-(6-(5-chloro-2-pyridyl)-5-[(4-methyl-1-piperazinyl)carbonyloxy]-7-oxo-6,7-dihydro-5H-pyrrolo[3,4-b]pyrazine), reference compound]
pH [1]: 7.6
Solubility [1]: 0.2^1 mgA/mL
Intrinsic dissolution Run 1 [2]: 0.6 mgA/cm^2/min
Intrinsic dissolution Run 2 [2]: 0.5 mgA/cm^2/min
Intrinsic dissolution Average [2]: 0.5 mgA/cm^2/min
